Activity calls are given as the source filed them. The rule behind the calls is not given here.
Assays:
CCRF-CEM = assay: Antitumor activity against CCRF-CEM cell line; format: functional, cell-based; conditions: Homo sapiens
RPMI-8226 = assay: Antitumor activity against RPMI8226 cell line; format: functional, cell-based; conditions: Homo sapiens
KYSE-510 = assay: Antitumor activity against KYSE510 cell line after 96 hrs using crystal violet; format: functional; conditions: Homo sapiens, KYSE-510, 96 h
UO-31 = assay: Antitumor activity against UO31 cell line; format: functional, cell-based; conditions: Homo sapiens
SF-539 = assay: Antitumor activity against SF539 cell line; format: functional, cell-based; conditions: Homo sapiens
SR = assay: Antitumor activity against SR cell line; format: functional, cell-based; conditions: Homo sapiens
HL-60 = assay: Antitumor activity against HL60(TB) cell line; format: functional, cell-based; conditions: Homo sapiens
SK-OV-3 = assay: Antitumor activity against SKOV3 cell line; format: functional, cell-based; conditions: Homo sapiens
LOX IMVI = assay: Antitumor activity against LOXIMVI cell line; format: functional, cell-based; conditions: Homo sapiens
RXF 393 = assay: Antitumor activity against RXF393 cell line; format: functional, cell-based; conditions: Homo sapiens
5637 = assay: Antitumor activity against 5637 cell line after 96 hrs using crystal violet; format: functional; conditions: Homo sapiens, 5637, 96 h
HOP-92 = assay: Antitumor activity against HOP92 cell line; format: functional, cell-based; conditions: Homo sapiens
ACHN = assay: Antitumor activity against ACHN cell line; format: functional, cell-based; conditions: Homo sapiens

Row | SMILES | GI50 (KYSE-510) | further results
1 | O=S(=O)(NC1=NCCN1C(=S)SN1CCn2c1nsc2=S)c1cccc(OC(F)(F)F)c1 | ≥ 20 µM | Activity (CCRF-CEM): Active; Activity (RPMI-8226): Active
2 | O=S(=O)(NC1=NCCN1C(=S)SN1CCn2c1nsc2=S)c1ccc(Cl)cc1Cl | ≥ 20 µM | 
3 | O=S(=O)(NC1=NCCN1C(=S)SN1CCn2c1nsc2=S)c1cc(Cl)cc(Cl)c1 | ≥ 20 µM | 
4 | COc1ccc(OC)c(S(=O)(=O)NC2=NCCN2C(=S)SN2CCn3c2nsc3=S)c1 | ≥ 20 µM | 
5 | O=S(=O)(NC1=NCCN1C(=S)SN1CCn2c1nsc2=S)c1cccc2ccccc12 | ≥ 20 µM | Activity (CCRF-CEM): Active; Activity (RPMI-8226): Active
6 | O=S(=O)(NC1=NCCN1C(=S)SN1CCn2c1nsc2=S)c1ccc(Cl)cc1 | ≥ 20 µM | Activity (UO-31): Active; Activity (SF-539): Active
7 | O=S(=O)(NC1=NCCN1C(=S)SN1CCn2c1nsc2=S)c1ccc(Oc2ccccc2)cc1 | ≥ 20 µM | Activity (SR): Active; Activity (HL-60): Active
8 | CC(=O)Nc1ccc(S(=O)(=O)NC2=NCCN2C(=S)SN2CCn3c2nsc3=S)cc1 | ≥ 20 µM | 
9 | Cc1ccc(S(=O)(=O)NC2=NCCN2C(=S)SN2CCn3c2nsc3=S)cc1 | ≥ 20 µM | Activity (SK-OV-3): Active; Activity (LOX IMVI): Active
10 | O=S(=O)(NC1=NCCN1C(=S)SN1CCn2c1nsc2=S)c1cccc(Cl)c1 | ≥ 20 µM | Activity (RXF 393): Active; Activity (CCRF-CEM): Active
11 | O=S(=O)(NC1=NCCN1C(=S)SN1CCn2c1nsc2=S)c1ccccc1Cl | ≥ 20 µM | Activity (CCRF-CEM): Active; Activity (HL-60): Active
12 | O=[N+]([O-])c1ccc(S(=O)(=O)NC2=NCCN2C(=S)SN2CCn3c2nsc3=S)cc1 | ≥ 20 µM | GI50 5637: 3.67 µM
13 | COc1ccc(S(=O)(=O)NC2=NCCN2C(=S)SN2CCn3c2nsc3=S)cc1 | ≥ 20 µM | Activity (UO-31): Active; Activity (RXF 393): Active
14 | O=S(=O)(NC1=NCCN1C(=S)SN1CCn2c1nsc2=S)c1ccc(Br)cc1 | ≥ 20 µM | Activity (RPMI-8226): Active; Activity (HOP-92): Active
15 | O=S(=O)(NC1=NCCN1C(=S)SN1CCn2c1nsc2=S)c1ccc2ccccc2c1 | ≥ 20 µM | 
16 | COc1cc(C)ccc1S(=O)(=O)NC1=NCCN1C(=S)SN1CCn2c1nsc2=S | ≥ 20 µM | 
17 | O=S(=O)(NC1=NCCN1C(=S)SN1CCn2c1nsc2=S)c1ccc(-c2ccccc2)cc1 | ≥ 20 µM | 
18 | COc1ccc(S(=O)(=O)NC2=NCCN2C(=S)SN2CCn3c2nsc3=S)cc1OC | ≥ 20 µM | Activity (RXF 393): Active
19 | Cc1cc(C)c(S(=O)(=O)NC2=NCCN2C(=S)SN2CCn3c2nsc3=S)c(C)c1 | ≥ 20 µM | 
20 | O=S(=O)(NC1=NCCN1C(=S)SN1CCn2c1nsc2=S)c1ccccc1 | ≥ 20 µM | 
21 | COc1cccc(S(=O)(=O)NC2=NCCN2C(=S)SN2CCn3c2nsc3=S)c1 | ≥ 20 µM | Activity (LOX IMVI): Active; Activity (ACHN): Active
22 | O=S(=O)(NC1=NCCN1C(=S)SN1CCn2c1nsc2=S)c1ccc(Cl)c(Cl)c1 | ≥ 20 µM | 
23 | O=S(=O)(NC1=NCCN1C(=S)SN1CCn2c1nsc2=S)c1ccc(F)c(Cl)c1 | ≥ 20 µM | 
24 | O=S(=O)(NC1=NCCN1C(=S)SN1CCn2c1nsc2=S)c1ccc(Cl)c(Cl)c1Cl | ≥ 20 µM | 
25 | O=S(=O)(NC1=NCCN1C(=S)SN1CCn2c1nsc2=S)c1ccc(OC(F)(F)F)cc1 | ≥ 20 µM | Activity (SR): Active; Activity (SF-539): Active
26 | O=S(=O)(NC1=NCCN1C(=S)SN1CCn2c1nsc2=S)c1ccc(C(F)(F)F)cc1 | ≥ 20 µM | 

From ChEMBL document CHEMBL1138956, “Synthesis and in vitro anti-tumor activity of N-{1-[(3-thioxo-5,6-dihydroimidazo[2,1-c][1,2,4]thiadiazol-7-ylthio)thiocarbonyl]-2-imidazolidene}arylsulfonamides” (2006)
